Data set [1] has as its target T1, HCV polymerase (NS5B570n-Con1) (Hepatitis C virus genotype 1b, UniProt Q9WMX2).
T1 construct: a 21 amino acid C-terminal deletion of full-length HCV polymerase; made in house; host or cells: E. coli BL21(DE3) pLysS, plasmid pET17b
Description: HCV NS5B RNA polymerase activity. It is filed as biochemical, HCV Con1 strain. Conditions: NS5B pol inhibition IC50, as in Example 32 (20 nM RNA template). As to the method:
The enzymatic activity of HCV polymerase (NS5B570n-Con1) was measured as the incorporation of radiolabeled nucleotide monophosphates into acid insoluble RNA products. Unincorporated radiolabeled substrate was removed by filtration and scintillant was added to the washed and dried filter plate containing radiolabeled RNA product. The amount of RNA product generated by NS5B570n-Con1 at the end of the reaction was directly proportional to the amount of light emitted by the scintillant.
The HCV polymerase used in the enzymatic activity assay is a 21 amino acid C-terminal deletion of full-length HCV polymerase derived from HCV Con1 strain, genotype 1b (GenBank accession number AJ242654) (NS5B570n-Con1). The NS5B570n-Con1 was sub-cloned downstream to the T7 promoter of the plasmid expression construct pET17b and transformed into E. coli strain BL21(DE3) pLysS for protein expression. A single colony was used to start an innoculum for a 10 L culture in LB media supplemented with 100 μg/mL ampicillin at 37° C. Protein expression was induced by the addition of 0.25 mM isopropyl-β-D-thiogalactopyranoside (IPTG) when the optical density of the culture at […] was 0.8. Induction of protein expression was carried out at 30° C. for 16 h after which the cells were harvested by centrifugation. NS5B570n-Con1 was purified to homogeneity using a three-column purification protocol including subsequent column chromatography on Ni-NTA, SP-Sepharose HP and Superdex 75 resins.
[…] TRK-412; specific activity: 30 to 60 Ci/mmol;), 1 μM each ATP, CTP, and GTP, 40 mM Tris-HCl pH 8.0, 40 mM NaCl, 4 mM DTT (dithiothreitol), 4 mM MgCl2, 5 μl of compound serial diluted in DMSO, and nuclease-free water to a final reaction volume of 50 μl. Enzymatic reactions in the presence of poly A RNA template (see section 0004) contained 20 nM Poly A:oligo(rU)16 premixed (see section 0004), 20 nM NS5B570n-Con1 enzyme, 1 μCi of tritiated UTP (Perkin Elmer catalog no. TRK-412; specific activity: 30 to 60 Ci/mmol), 40 mM Tris-HCl pH 8.0, 40 mM NaCl, 4 mM DTT (dithiothreitol), 4 mM MgCl2, 5 μl of compound serial diluted in DMSO, and nuclease-free water to a final reaction volume of 50 μl. Reaction mixtures were assembled in 96-well filter plates (cat #MADVN0B, Millipore Co.) and incubated for 2 h at 30° C. Reactions were stopped by addition of 10% final (v/v) trichloroacetic acid and incubated for 40 min at 4° C. Reactions were filtered, washed with 8 reaction volumes of 10% (v/v) trichloroacetic acetic acid, 4 reaction volumes of 70% (v/v) ethanol, air dried, and 25 μl of scintillant (Microscint 20, Perkin-Elmer) was added to each reaction well.
Two RNA templates were used to assay compounds described herein. The cIRES RNA template was 377 nucleotide long and consisted of a partial complementary sequence (36 nucleotides) of the core protein, followed by 341 nucleotide of the complementary sequence of the internal ribosome entry site. The poly A RNA template (GE Amersham catalog number 27-4110) was a homopolymeric RNA pre-annealed to a oligo(rU)16 primer at a molar ratio of 3-to-1 (primer-template).
The amount of light emitted from the scintillant was converted to counts per minute (CPM) on a Topcount® plate reader (Perkin-Elmer, Energy Range: Low, Efficiency Mode: Normal, Count Time: 1 min, Background Subtract: none, Cross talk reduction: Off).
Data was analyzed in Excel® (Microsoft) and ActivityBase® (Idbs®). The reaction in the absence of enzyme was used to determine the background signal, which was subtracted from the enzymatic reactions. […] All data was expressed as a percentage of the positive control. The compound concentration at which the enzyme-catalyzed rate of RNA synthesis was reduced by 50%

pIC50: −log10 of the molar value.

Broadly, the pIC50 is −log10 of the IC50, conventionally taken in molar units. Low values mean a high IC50, high ones a low IC50. As a reminder, the melting point is the temperature of the solid-liquid transition.

For the molecule `COc1c(/C=C/c2ccc(NS(C)(=O)=O)cc2)cc(-c2c(O)nc(C)[nH]c2=O)cc1C(C)(C)C` [Compound I-41, N-(4-{(E)-2-[3-tert-Butyl-5-(4-hydroxy-2-methyl-6-oxo-1,6-dihydro-pyrimidin-5-yl)-2-methoxy-phenyl]-vinyl}-phenyl)-methanesulfonamide], the pIC50 in data set [1] was 9.40. `Cc1cc(-c2ccn[nH]c2=O)cc(C(C)(C)C)c1` [Compound I-12] showed a melting point of 175 to 176 °C. Also, in data set [1], the negative logarithm of the IC50 (pIC50) was 6.41.

`COc1c(-c2ccc3cc(NS(C)(=O)=O)ccc3c2)cc(-c2ncn[nH]c2=O)cc1C(C)(C)C` [Compound I-37, N-{6-[3-tert-Butyl-2-methoxy-5-(6-oxo-1,6-dihydro-[1,2,4]triazin-5-yl)-phenyl]-naphthalen-2-yl}-methanesulfonamide] had a pIC50 in data set [1] of 9.15.

The molecule `COc1ncc(-c2cc(/C=C/c3ccc(NS(C)(=O)=O)cc3)c(OC)c(C(C)(C)C)c2)c(=O)[nH]1` [Compound I-34, N-(4-{(E)-2-[3-tert-Butyl-2-methoxy-5-(2-methoxy-6-oxo-1,6-dihydro-pyrimidin-5-yl)-phenyl]-vinyl}-phenyl) methanesulfonamide] gave a melting point of 296 to 299 °C. In data set [1], this molecule gave a pIC50 of 9.22. The corresponding values for `COc1c(/C=C/c2ccc(NS(C)(=O)=O)cc2)cc(-c2c[nH]c(=O)[nH]c2=O)cc1C(F)(F)F` [Compound I-35, N-(4-{(E)-2-[5-(2,4-Dioxo-1,2,3,4-tetrahydro-pyrimidin-5-yl)-2-methoxy-3-trifluoromethyl-phenyl]-vinyl}-phenyl)-methanesulfonamide] are 255 to 258 °C and 9.30. With `COc1c(/C=C/c2ccc(NS(C)(=O)=O)cc2F)cc(-c2c[nH]c(=O)[nH]c2=O)cc1C(C)(C)C` [Compound I-7, N-(4-{(E)-2-[3-tert-Butyl-5-(2,4-dioxo-1,2,3,4-tetrahydro-pyrimidin-5-yl)-2-methoxy-phenyl]-vinyl}-3-fluoro-phenyl)-methanesulfonamide], the pIC50 in data set [1] is 9.52. `COc1c(/C=C/c2ccc(NS(C)(=O)=O)cc2)cc(-c2ccn[nH]c2=O)cc1C1CC1` [Compound I-26, N-(4-{(E)-2-[3-Cyclopropyl-2-methoxy-5-(3-oxo-2,3-dihydro-pyridazin-4-yl)-phenyl]-vinyl}-phenyl)-methanesulfonamide] had a melting point of 269 to 271 °C. This molecule had a pIC50 in data set [1] of 8.68. The corresponding values for `COc1c(/C=C/c2ccc(NS(C)(=O)=O)cc2)cc(-c2c[nH]c(=O)[nH]c2=O)cc1OC(F)(F)F` [Compound I-42, N-(4-{(E)-2-[5-(2,4-Dioxo-1,2,3,4-tetrahydro-pyrimidin-5-yl)-2-methoxy-3-trifluoromethoxy-phenyl]-vinyl}-phenyl)-methanesulfonamide] are 202 to 205 °C and 8.17.

Molecule `COc1c(/C=C/c2ccc(NS(C)(=O)=O)cc2)cc(-c2c[nH]c(=O)[nH]c2=O)c2c1C(C)(C)CO2` [Compound I-28, N-(4-{(E)-2-[7-(2,4-dioxo-1,2,3,4-tetrahydro-pyrimidin-5-yl)-4-methoxy-3,3-dimethyl-2,3-dihydro-benzofuran-5-yl]-vinyl}-phenyl)-methanesulfonamide] showed a melting point of more than 300 °C. Moreover, the negative-log IC50 (pIC50) in data set [1] was 9.22. The corresponding values for `COc1c(CCc2ccc(NS(C)(=O)=O)cc2)cc(-c2ncc[nH]c2=O)c(F)c1C(C)(C)C` [Compound I-3, N-(4-{2-[3-tert-Butyl-4-fluoro-2-methoxy-5-(3-oxo-3,4-dihydro-pyrazin-2-yl)-phenyl]-ethyl}-phenyl)-methanesulfonamide] are 130 to 132 °C and 7.39.

Consider `COc1c(/C=C/c2ccc(NS(C)(=O)=O)cc2)cc(-c2cnc(N(C)C)[nH]c2=O)cc1C(C)(C)C` [Compound I-33, N-(4-{(E)-2-[3-tert-Butyl-5-(2-dimethylamino-6-oxo-1,6-dihydro-pyrimidin-5-yl)-2-methoxy-phenyl]-vinyl}-phenyl)-methanesulfonamide], for which the melting point was more than 300 °C. In data set [1], the pIC50 was 8.59. As to `COc1c(CCc2ccc(NC(C)=O)cc2)cc(-c2ncc[nH]c2=O)cc1C(C)(C)C` [Compound I-2, N-(4-{2-[3-tert-Butyl-2-methoxy-5-(3-oxo-3,4-dihydro-pyrazin-2-yl)-phenyl]-ethyl}-phenyl)-acetamide], the melting point fell in the range of 181 to 185 °C. In data set [1], the pIC50 was 6.15. In turn, `COc1c(/C=C/c2ccc(NS(C)(=O)=O)cc2)cc(-c2ccn[nH]c2=O)c2c1C(C)(C)CO2` [Compound I-27, N-(4-{(E)-2-[4-Methoxy-3,3-dimethyl-7-(3-oxo-2,3-dihydro-pyridazin-4-yl)-2,3-dihydro-benzofuran-5-yl]-vinyl}-phenyl)-methanesulfonamide] gave a pIC50 in data set [1] of 9.52. On the same count and under the same terms, in the case of `COCc1cc(NS(C)(=O)=O)ccc1/C=C/c1cc(-c2cnc(OC)[nH]c2=O)cc(C(C)(C)C)c1OC` [Compound I-39, N-(4-{(E)-2-[3-tert-Butyl-2-methoxy-5-(2-methoxy-6-oxo-1,6-dihydro-pyrimidin-5-yl)-phenyl]-vinyl}-3-methoxymethyl-phenyl)-methanesulfonamide] it was 9.05; in that of `COc1c(/C=C/c2ccc(NS(C)(=O)=O)cc2)cc(-c2c[nH]c(=O)[nH]c2=O)cc1CC(F)(F)F` [Compound I-38, N-(4-{(E)-2-[5-(2,4-Dioxo-1,2,3,4-tetrahydro-pyrimidin-5-yl)-2-methoxy-3-(2,2,2-trifluoro-ethyl)-phenyl]-vinyl}-phenyl)-methanesulfonamide], 8.85.

Regarding `COc1c(/C=C/c2ccc(NS(C)(=O)=O)cc2)cc(-c2ncc[nH]c2=O)cc1C(C)(C)C` [Compound I-11, N-(4-{(E)-2-[3-tert-Butyl-2-methoxy-5-(3-oxo-3,4-dihydro-pyrazin-2-yl)-phenyl]-vinyl}-phenyl)-methanesulfonamide], the pIC50 in data set [1] was 8.40.

On to `CC(C)(C)c1cc(/C=C/c2ccc(NS(C)(=O)=O)cc2)cc(-c2ccn[nH]c2=O)c1` [Compound I-15], for which the pIC50 in data set [1] is 8.52. Same read-out and setting: in the case of `COc1c(/C=C/c2ccc(NS(C)(=O)=O)cc2)cc(-c2cnc(C)[nH]c2=O)cc1C(C)(C)C` [Compound I-43, N-(4-{(E)-2-[3-tert-Butyl-2-methoxy-5-(2-methyl-6-oxo-1,6-dihydro-pyrimidin-5-yl)-phenyl]-vinyl}-phenyl)-methanesulfonamide] it was 8.96. Same read-out and setting: in the case of `COc1c(/C=C/c2ccc(NS(C)(=O)=O)cn2)cc(-c2c[nH]c(=O)[nH]c2=O)cc1C(C)(C)C` [Compound I-29, N-(6-{(E)-2-[3-tert-Butyl-5-(2,4-dioxo-1,2,3,4-tetrahydro-pyrimidin-5-yl)-2-methoxy-phenyl]-vinyl}-pyridin-3-yl)-methanesulfonamide] it was 8.92; in that of `CC(C)(C)c1cc(CCc2ccc(NS(C)(=O)=O)cc2)c(O)c(-c2ncc[nH]c2=O)c1` [Compound I-5, N-(4-{2-[5-tert-butyl-2-hydroxy-3-(3-oxo-3,4-dihydro-pyrazin-2-yl)-phenyl]-ethyl}-phenyl)-methanesulfonamide], 7.04.

Values taken from US8178547B2, “Heterocyclic antiviral compounds” (Roche Palo Alto LLC, priority 2008, dated 2012).
